Assay results published in publication PMC6399351, “Cationic Intrinsically Disordered Antimicrobial Peptides (CIDAMPs) Represent a New Paradigm of Innate Defense with a Potential for Novel Anti-Infectives” (Scientific Reports, 2019).
In brackets after ≈: the same amount, converted by molar mass. Several values for one entry are separate records, joined by “and”; a condition that tells them apart may be missing. Equal values may be shown once. Read-outs that look alike come from different tables or passages of the source. Square brackets hold non-standard residues; d marks the D form. Ends that are not written are not given here. Peptide text beside a SMILES is read from it. * marks the point of attachment. Palmitoyl = CCCCCCCCCCCCCCCC(=O)*; Myristoyl = CCCCCCCCCCCCCC(=O)*; dOrn = NCCC[C@@H](N)C(=O)O; Orn = NCCC[C@H](N)C(=O)O

How the values were obtained:
[1] = tested on: P. aeruginosa ATCC 10145; details: CFU assay, 10 mM NaP, pH 5.5, 0.25% glucose
[2] = tested on: S. aureus ATCC 6538; details: for LD90 / LD100: CFU assay, 10 mM NaP
[3] = tested on: Staphylococcus aureus ATCC 43300; details: MRSA; CLSI, Mueller–Hinton broth, 5 × 10^5 CFU/mL, 18 h 37 °C, by CO-ADD
[4] = tested on: Cryptococcus neoformans ATCC 208821; experiment: CO-ADD MIC, antifungal assay (CLSI); format: cell-based; details: Yeast Nitrogen Base broth, 24 h 35 °C, by CO-ADD
Experimental: (§1) Fungi strains were cultured for 3 days on Yeast Extract-Peptone Dextrose (YPD) agar at 30 °C. A yeast suspension of 1 × 10^6 to 5 × 10^6 cells/mL (as determined by OD530) was prepared from five colonies. These stock suspensions were diluted with Yeast Nitrogen Base (YNB) broth to a final concentration of 2.5 × 10^3 CFU/mL. […] Plates were covered and incubated at 35 °C for 24 h without shaking.

[5] = tested on: Candida albicans ATCC 90028; experiment: CO-ADD MIC, antifungal assay (CLSI); format: cell-based; details: Yeast Nitrogen Base broth, 24 h 35 °C, by CO-ADD
Experimental: as §1

[6] = tested on: Acinetobacter baumannii ATCC 19606; experiment: CO-ADD MIC, broth microdilution (CLSI); format: cell-based; details: Mueller–Hinton broth, 5 × 10^5 CFU/mL, 18 h 37 °C, by CO-ADD
Description: (§2) They were defined as the lowest peptide
(§3) Further details of the screening

[7] = tested on: Pseudomonas aeruginosa ATCC 27853; experiment: CO-ADD MIC, broth microdilution (CLSI); format: cell-based; details: Mueller–Hinton broth, 5 × 10^5 CFU/mL, 18 h 37 °C, by CO-ADD
Description: as §2, §3

[8] = tested on: E. coli ATCC 25922; experiment: CO-ADD MIC, broth microdilution (CLSI); format: cell-based, Escherichia coli; details: Mueller–Hinton broth, 5 × 10^5 CFU/mL, 18 h 37 °C, by CO-ADD
Description: as §2, §3

[9] = tested on: Klebsiella pneumonia ATCC 700603; details: MDR strain; CLSI, Mueller–Hinton broth, 5 × 10^5 CFU/mL, 18 h 37 °C, by CO-ADD

Molecule	LD90 [1]	LD100 [1]	LD90 ([2]; pH 5.5, 0.25% glucose)	LD100 ([2]; pH 5.5, 0.25% glucose)	also measured
CCCCCCCCCCCCCCCC(=O)NCC(=O)N[C@H](CCCNC(=N)N)C(=O)N[C@H](CCCNC(=N)N)C(=O)NCC(=O)NCC(=O)N[C@H](CCCNC(=N)N)C(=O)NCC(=O)NCC(=O)N[C@H](CCCNC(=N)N)C(=O)O [(D)-Pal-GR9] (Palmitoyl-G[dR][dR]GG[dR]GG[dR]-OH; C-terminus assumed)	0.038 µg/mL	0.59 µg/mL	0.15 µg/mL	2.35 µg/mL	–
CCCCCCCCCCCCCC(=O)NCC(=O)N[C@@H](CCCNC(=N)N)C(=O)N[C@@H](Cc1c[nH]cn1)C(=O)NCC(=O)N[C@@H](CO)C(=O)NCC(=O)N[C@@H](CC(C)C)C(=O)NCC(=O)N[C@@H](Cc1c[nH]cn1)C(=O)N[C@@H](CO)C(=O)N[C@@H](CO)C(=O)N[C@@H](CO)C(=O)N[C@@H](Cc1c[nH]cn1)C(=O)NCC(=O)N[C@@H](CCC(N)=O)C(=O)N[C@@H](Cc1c[nH]cn1)C(=O)NCC(=O)N[C@@H](CO)C(=O)NCC(=O)N[C@@H](CO)C(=O)NCC(=O)N[C@@H](CCCNC(=N)N)C(=O)O [Myr-HR 1-18] (Myristoyl-GRHGSGLGHSSSHGQHGSGSGR-OH; C-terminus assumed)	0.075 µg/mL	0.3 µg/mL	9.38 µg/mL	75 µg/mL	LD90 ([2]; pH 7.3, 1% TSB): 18.75 µg/mL; LD100 ([2]; pH 7.3, 1% TSB): 75 µg/mL
CCCCCCCCCCCCCCCC(=O)NCC(=O)N[C@H](CCCCN)C(=O)NCC(=O)N[C@H](CCCCN)C(=O)O [Pal-(D)-GK4] (Palmitoyl-G[dK]G[dK]-OH; C-terminus assumed)	1.18 µg/mL	4.7 µg/mL	4.7 µg/mL	9.375 µg/mL	–
CCCCCCCCCCCCCCCC(=O)NCC(=O)N[C@H](CCCN)C(=O)NCC(=O)N[C@H](CCCN)C(=O)O [Pal-(D)-GO4] (Palmitoyl-G[dOrn]G[dOrn]-OH; C-terminus assumed)	1.18 µg/mL	9.38 µg/mL	9.38 µg/mL	18.75 µg/mL	–
CCCCCCCCCCCCCCCC(=O)NCC(=O)N[C@H](CCCNC(=N)N)C(=O)NCC(=O)N[C@H](CCCNC(=N)N)C(=O)O [Pal-(D)-GR4] (Palmitoyl-G[dR]G[dR]-OH; C-terminus assumed)	18.75 µg/mL	150 µg/mL	18.75 µg/mL	37.5 µg/mL	–
CCCCCCCCCCCCCCCC(=O)NCC(=O)N[C@@H](Cc1c[nH]cn1)C(=O)N[C@@H](Cc1c[nH]cn1)C(=O)NCC(=O)NCC(=O)N[C@@H](Cc1c[nH]cn1)C(=O)NCC(=O)NCC(=O)N[C@@H](Cc1c[nH]cn1)C(=O)NCC(=O)N[C@@H](Cc1c[nH]cn1)C(=O)NCC(=O)N[C@@H](Cc1c[nH]cn1)C(=O)O [Pal-GH13] (Palmitoyl-GHHGGHGGHGHGH-OH; C-terminus assumed)	0.075 µg/mL	0.3 µg/mL	0.3 µg/mL	300 µg/mL	LD90 ([2]; pH 7.0, 0.25% glucose): 0.3 µg/mL; LD100 ([2]; pH 7.0, 0.25% glucose): >300 µg/mL; S. aureus ATCC 6538-cidal activity ([2]; pH 7.5, at concentrations >8 µM and <0.1 µM (antibiotic paradox)): complete loss of bactericidal activity
CCCCCCCCCCCCCCCC(=O)NCC(=O)N[C@@H](CCCCN)C(=O)NCC(=O)N[C@@H](CCCCN)C(=O)O [Pal-GK4] (Palmitoyl-GKGK-OH; C-terminus assumed)	–	9.375 µg/mL	4.7 µg/mL	9.375 µg/mL	–
CCCCCCCCCCCCCCCC(=O)NCC(=O)N[C@@H](CCCN)C(=O)NCC(=O)N[C@@H](CCCN)C(=O)O [Pal-GO4] (Palmitoyl-G[Orn]G[Orn]-OH; C-terminus assumed)	2.35 µg/mL	18.75 µg/mL	9.38 µg/mL	–	–
CCCCCCCCCCCCCCCC(=O)N[C@@H](CCCNC(=N)N)C(=O)NCC(=O)N[C@@H](CO)C(=O)N[C@@H](CCCNC(=N)N)C(=O)N[C@@H](CO)C(=O)NCC(=O)N[C@@H](CCC(N)=O)C(=O)N[C@@H](CO)C(=O)N[C@@H](CO)C(=O)N[C@@H](CCCNC(=N)N)C(=O)NCC(=O)N[C@@H](CCC(=O)O)C(=O)N[C@@H](CCCNC(=N)N)C(=O)N[C@@H](CCCNC(=N)N)C(=O)O [Pal-HR-1-11-2H2R-14] (Palmitoyl-RGSRSGQSSRGERR-OH)	–	–	–	–	Minimal inhibitory concentration (MIC) [3]: 8 µg/mL (≈ 4.41 µM); Minimal inhibitory concentration (MIC) [4]: 8 µg/mL (≈ 4.41 µM); Minimal inhibitory concentration (MIC) [5]: >32 µg/mL; Minimal inhibitory concentration (MIC) [6]: 4 µg/mL (≈ 2.2 µM); Minimal inhibitory concentration (MIC) [7]: >32 µg/mL; Minimal inhibitory concentration (MIC) [8]: 8 µg/mL (≈ 4.41 µM); Minimal inhibitory concentration (MIC) [9]: >32 µg/mL
CCCCCCCCCCCCCCCC(=O)NCC(=O)N[C@@H](CCCCN)C(=O)N[C@@H](CCCCN)C(=O)NCC(=O)NCC(=O)N[C@@H](CCCCN)C(=O)NCC(=O)NCC(=O)N[C@@H](CCCCN)C(=O)NCC(=O)N[C@@H](CCCCN)C(=O)NCC(=O)N[C@@H](CCCCN)C(=O)O [Pal-K-GR13] (Palmitoyl-GKKGGKGGKGKGK-OH; C-terminus assumed)	< 0.019 µg/mL	0.15 µg/mL	0.59 µg/mL	>300 µg/mL	–
CCCCCCCCCCCCCCCC(=O)N[C@@H](CO)C(=O)N[C@@H](Cc1c[nH]cn1)C(=O)N[C@@H](Cc1c[nH]cn1)C(=O)N[C@@H](CCCNC(=N)N)C(=O)N[C@@H](Cc1c[nH]cn1)C(=O)N[C@@H](Cc1ccccc1)C(=O)N[C@@H](CCCNC(=N)N)C(=O)N[C@@H](CO)C(=O)N[C@@H](Cc1c[nH]cn1)C(=O)N[C@@H](CCC(N)=O)C(=O)N[C@@H](CS)C(=O)N[C@@H](CCCNC(=N)N)C(=O)N[C@@H](CCCNC(=N)N)C(=O)O [Pal-LCE-3C55-67] (Palmitoyl-SHHRHFRSHQCRR-OH)	–	–	–	–	Minimal inhibitory concentration (MIC) [3]: 32 µg/mL (≈ 16.1 µM); Minimal inhibitory concentration (MIC) [4]: 1 µg/mL (≈ 0.504 µM); Minimal inhibitory concentration (MIC) [5]: 16 µg/mL (≈ 8.07 µM); Minimal inhibitory concentration (MIC) [6]: >32 µg/mL; Minimal inhibitory concentration (MIC) [7]: >32 µg/mL; Minimal inhibitory concentration (MIC) [8]: >32 µg/mL; Minimal inhibitory concentration (MIC) [9]: >32 µg/mL
CCCCCCCCCCCCCCCC(=O)NCC(=O)N[C@@H](CCCN)C(=O)N[C@@H](CCCN)C(=O)NCC(=O)NCC(=O)N[C@@H](CCCN)C(=O)NCC(=O)NCC(=O)N[C@@H](CCCN)C(=O)NCC(=O)N[C@@H](CCCN)C(=O)NCC(=O)N[C@@H](CCCN)C(=O)O [Pal-Orn-GR13] (Palmitoyl-G[Orn][Orn]GG[Orn]GG[Orn]G[Orn]G[Orn]-OH; C-terminus assumed)	0.075 µg/mL	0.3 µg/mL	0.15 µg/mL	18.75 µg/mL	–
CCCCCCCCCCCCCCCC(=O)SC[C@H](NC(=O)[C@H](CO)NC(=O)[C@H](CO)NC(=O)[C@H](CO)NC(=O)[C@H](CCC(N)=O)NC(=O)CNC(=O)[C@H](CO)NC(=O)[C@H](C)NC(=O)[C@H](CO)NC(=O)CNC(=O)[C@H](Cc1c[nH]cn1)NC(=O)[C@H](CCC(N)=O)NC(=O)CNC(=O)[C@H](Cc1c[nH]cn1)NC(=O)[C@@H](NC(=O)[C@H](CO)NC(=O)[C@H](CO)NC(=O)[C@H](Cc1c[nH]cn1)NC(=O)CNC(=O)[C@H](CO)NC(=O)[C@H](CO)NC(=O)[C@H](CO)NC(=O)CNC(=O)[C@H](Cc1c[nH]cn1)NC(=O)[C@H](CCC(N)=O)NC(=O)CN)[C@@H](C)O)C(N)=O [S-Pal-HRNR2004–2029] (H-GQHGSSSGHSSTHGQHGSASGQSSSC(Palmitoyl)-NH2; N-terminus assumed)	–	–	0.59 µg/mL	> 150 µg/mL and 75 µg/mL	–
GRRGGGGGRGGGRGGRGGGGGR [HR 1-18,G+R]	–	–	> 300 µg/mL	> 300 µg/mL	–
GRRGSGGGRSSSRGGRGSGSGR [HR 1-18,4H-4R/L-G]	–	0.15 µg/mL	> 300 µg/mL	> 300 µg/mL	–
HAHSGHGQSTQRGSRTAGR [FLG-22082-2100]	0.038 µg/mL	–	–	–	Minimal inhibitory concentration (MIC) [3]: >32 µg/mL; Minimal inhibitory concentration (MIC) [4]: >32 µg/mL; Minimal inhibitory concentration (MIC) [5]: >32 µg/mL; Minimal inhibitory concentration (MIC) [6]: >32 µg/mL; Minimal inhibitory concentration (MIC) [7]: >32 µg/mL; Minimal inhibitory concentration (MIC) [8]: >32 µg/mL; Minimal inhibitory concentration (MIC) [9]: >32 µg/mL
LRHGSGLGHSSSHGQHGSGSGR [HR 1-18-Leu]	4.7 µg/mL	–	300 µg/mL	> 300 µg/mL	–
Pal-SHHRHFRSHQCRRQRS NSCDR [Pal-LCE-3C55-75]	–	–	0.15 µg/mL	0.59 µg/mL	–
SHHRPRLFHRRRH [LCE-2B74-86]	–	–	1.18 µg/mL	> 150 µg/mL	–
SRRSSSLSRSSSRSSRSSSSSR [HR 1-18,4H-4R/9G-9S]	0.15 µg/mL	1.18 µg/mL	150 µg/mL	> 300 µg/mL	LD90 ([2]; pH 7.2, 0.25% glucose): 75 µg/mL; LD100 ([2]; pH 7.2, 0.25% glucose): > 300 µg/mL
